Source: ChEMBL document CHEMBL1201862, “PubChem BioAssay data set” (2004)
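How tested: cells in 96-well plates exposed to compound for 48 hours at five concentrations. At the GI50, growth is halved.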 Active and inactive are the calls of the source. No stated cut-off is given here; in the data, active = GI50 up to about 1.1 µM and inactive = higher.

What was measured:
Experiment in all cases: NCI tumour cell line growth inhibition, 48 h
ACHN = test system: ACHN
COLO 205 = test system: COLO 205
HCC 2998 = test system: HCC 2998
HCT-116 = test system: HCT-116
HL-60 = test system: HL-60
Hs-578T = test system: Hs-578T
IGROV-1 = test system: IGROV-1
K562 = test system: K562
KM12 = test system: KM12
LOX IMVI = test system: LOX IMVI
MDA-MB-231 = test system: MDA-MB-231
MDA-N = test system: MDA-N
Malme-3M = test system: Malme-3M
SF-539 = test system: SF-539
SNB-75 = test system: SNB-75
U-251 = test system: U-251
UO-31 = test system: UO-31
CCRF-CEM = test system: CCRF-CEM
SW-620 = test system: SW-620

| Structure (SMILES) | GI50 (ACHN) | GI50 (COLO 205) | GI50 (HCC 2998) | GI50 (HCT-116) | GI50 (HL-60) | GI50 (Hs-578T) | GI50 (IGROV-1) | GI50 (K562) | GI50 (KM12) | GI50 (LOX IMVI) | GI50 (MDA-MB-231) | GI50 (MDA-N) | GI50 (Malme-3M) | GI50 (SF-539) | GI50 (SNB-75) | GI50 (U-251) | GI50 (UO-31) | GI50 (CCRF-CEM) | GI50 (SW-620) |
| --- | --- | --- | --- | --- | --- | --- | --- | --- | --- | --- | --- | --- | --- | --- | --- | --- | --- | --- | --- |
| CC(=O)OCC12C(OC(C)=O)C[C@@H](C)C3(CC(c4ccoc4)OC3=O)C1CCC(O)C21CO1 (some centres undefined) | > 100 µM (inactive) | > 100 µM (inactive) | > 100 µM (inactive) | > 100 µM (inactive) | > 100 µM (inactive) | > 100 µM (inactive) | > 100 µM (inactive) | > 100 µM (inactive) | > 100 µM (inactive) | > 100 µM (inactive) | > 100 µM (inactive) | > 100 µM (inactive) | > 100 µM (inactive) | > 100 µM (inactive) | > 100 µM (inactive) | > 100 µM (inactive) | > 100 µM (inactive) | – | – |
| CC1(C)N=C(N)N=C(N)N1CCCCc1ccccc1 | 1.48 µM (inactive) | 0.433 µM (active) | 13.3 µM (inactive) | 0.0364 µM (active) | 0.431 µM (active) | 3.21 µM (inactive) | 0.232 µM (active) | < 0.0177 µM (active) | 0.689 µM (active) | 0.149 µM (active) | > 64.9 µM (inactive) | 0.046 µM (active) | 0.282 µM (active) | 0.34 µM (active) | 15.4 µM (inactive) | 0.209 µM (active) | 64.3 µM (inactive) | 0.483 µM (active) | – |
| O=C(O)c1ccc(Nc2cnc3cc(C(F)(F)F)ccc3n2)cc1 | 34.1 µM (inactive) | > 100 µM (inactive) | 30.2 µM (inactive) | 54.7 µM (inactive) | 22.8 µM (inactive) | 40 µM (inactive) | 25.3 µM (inactive) | 29.5 µM (inactive) | 37.1 µM (inactive) | 35.8 µM (inactive) | 36.7 µM (inactive) | 53.8 µM (inactive) | 29.5 µM (inactive) | 78 µM (inactive) | 35.6 µM (inactive) | 48.2 µM (inactive) | 43.2 µM (inactive) | 57.9 µM (inactive) | 69.8 µM (inactive) |
| Cc1nn(C(=O)c2ccncc2)c2c1C(c1ccc(Cl)cc1)SC(=N)N2 (centres undefined) | > 10 µM (inactive) | > 10 µM (inactive) | > 10 µM (inactive) | > 10 µM (inactive) | > 10 µM (inactive) | > 10 µM (inactive) | > 10 µM (inactive) | > 10 µM (inactive) | > 10 µM (inactive) | > 10 µM (inactive) | > 10 µM (inactive) | > 10 µM (inactive) | > 10 µM (inactive) | > 10 µM (inactive) | > 10 µM (inactive) | – | – | > 10 µM (inactive) | > 10 µM (inactive) |
| COc1cccc(-c2cc(O)c3cc(N4CCOCC4)ccc3n2)c1 | 0.0524 µM (active) | 0.0204 µM (active) | 0.0656 µM (active) | 0.0221 µM (active) | 0.0194 µM (active) | 0.0184 µM (active) | 0.0575 µM (active) | 0.0212 µM (active) | 0.0424 µM (active) | 0.049 µM (active) | 0.13 µM (active) | 0.0069 µM (active) | 0.0131 µM (active) | 0.0217 µM (active) | 0.0377 µM (active) | 0.037 µM (active) | 0.0372 µM (active) | 0.0288 µM (active) | 0.0324 µM (active) |
| COc1ccc(OC)c(CC2CCc3nc(N)nc(N)c3C2)c1 (centres undefined) | < 0.0284 µM (active) | 10.2 µM (inactive) | 0.69 µM (active) | < 0.01 µM (active) | 3.58 µM (inactive) | 23.7 µM (inactive) | < 0.0453 µM (active) | > 100 µM (inactive) | 1.56 µM (inactive) | 0.0561 µM (active) | 25.4 µM (inactive) | < 0.01 µM (active) | 0.0334 µM (active) | 0.275 µM (active) | 0.828 µM (active) | > 49.3 µM (inactive) | 4.85 µM (inactive) | 0.515 µM (active) | 0.286 µM (active) |
